Laboratory results reported in PMC7312435, “Direct inhibition of the TLR4/MyD88 pathway by geniposide suppresses HIF‐1α‐independent VEGF expression and angiogenesis in hepatocellular carcinoma” (British Journal of Pharmacology, 2020).

Biological target: T1, recombinant human TLR4 (Homo sapiens, UniProt O00206)
T1 construct: amine-coupled to CM5 chip
Assay: surface plasmon resonance (Biacore X100), steady-state fit
Format: binding
Conditions: PBS with 0.05% Triton X-100, pH 7.4; geniposide 0-12.8 uM; TLR4 immobilised on CM5 chip (1,300 RU)

T1 sequence (O00206 24-839): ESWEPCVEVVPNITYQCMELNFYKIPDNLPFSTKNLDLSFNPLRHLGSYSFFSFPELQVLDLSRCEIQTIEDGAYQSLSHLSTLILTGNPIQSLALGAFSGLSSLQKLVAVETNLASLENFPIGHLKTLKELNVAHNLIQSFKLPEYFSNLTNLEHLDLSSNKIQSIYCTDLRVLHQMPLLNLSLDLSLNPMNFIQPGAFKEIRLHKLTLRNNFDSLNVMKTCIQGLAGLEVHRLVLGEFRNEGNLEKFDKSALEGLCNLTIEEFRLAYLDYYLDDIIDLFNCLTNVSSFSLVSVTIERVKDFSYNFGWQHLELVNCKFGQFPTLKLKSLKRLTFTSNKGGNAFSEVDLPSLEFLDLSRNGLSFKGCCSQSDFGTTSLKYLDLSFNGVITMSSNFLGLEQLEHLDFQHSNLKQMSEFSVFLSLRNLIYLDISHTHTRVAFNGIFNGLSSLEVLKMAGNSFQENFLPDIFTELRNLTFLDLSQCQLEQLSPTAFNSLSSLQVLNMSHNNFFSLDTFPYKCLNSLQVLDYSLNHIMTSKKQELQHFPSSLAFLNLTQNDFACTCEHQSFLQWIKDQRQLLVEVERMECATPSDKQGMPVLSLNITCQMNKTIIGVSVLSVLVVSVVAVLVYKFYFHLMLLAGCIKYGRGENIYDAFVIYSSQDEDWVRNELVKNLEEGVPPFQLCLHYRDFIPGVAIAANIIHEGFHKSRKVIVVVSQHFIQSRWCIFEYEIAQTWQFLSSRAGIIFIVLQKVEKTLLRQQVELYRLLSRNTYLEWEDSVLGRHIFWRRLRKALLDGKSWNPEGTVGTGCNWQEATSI

COC(=O)C1=CO[C@@H](O[C@@H]2O[C@H](CO)[C@@H](O)[C@H](O)[C@H]2O)[C@@H]2C(CO)=CC[C@H]12 [geniposide]
K D: 6.716e^−6 M
